Consider three compounds from US20260325443A1, “OLFACTORY DELIVERY OF THERAPEUTIC PSYCHEDELICS” (Rocket Science Health Corp., priority 2023, published 2026).

“And” between values parts separate entries of the source, which are not always exact repeats. Equal values may be shown once. Where a name gives a salt, the structure may show the parent alone.

Data set [1] can be described thus: Visualizing olfactory cleft delivery with methylene blue (nasal endoscope imaging). As to conditions: for Olfactory Residence Time: 0.1 mL, individual participants 2.01-2.05, at least 50% of fluid at olfactory cleft. The format is in vivo, human. The procedure:
Participants: Five healthy participants (ages 19+) with no history of sinonasal symptoms and no evidence of nasal inflammation were recruited for this study. Prior to recruitment of participants study procedures were approved by Providence Health Care research ethics board, (British Columbia, Canada) and conducted under Health Canada Investigational Testing Authorization #314993. All participants were assessed by a licensed otolaryngologist physician to confirm their eligibility. Participants completed two study visits during which a licensed otolaryngologist physician administered 0.1 mL of the visual dye tracer, methylene blue.
Study Design: During the first visit, the methylene blue was administered using the Laminar Fluid Ejection method (1.5 mm cannula; velocity=4.5 m/s). During the second visit, methylene blue was administered using a conventional nasal spray device (Pharma systems Item #10272, UPC: 063636802714). The Pharma systems spray device was used in these experiments because it was the device normally used by the compounding pharmacy for intranasal delivery. It was the device patients and clinicians were used to at this clinic.
Following delivery, the physician used a nasal endoscope to image the deposition of methylene blue to the olfactory cleft at up to five time points (1, 5, 8, 12, and 15 minutes following delivery). From each image, the physician judged whether at least 50% of the methylene blue fluid was delivered to the olfactory cleft. If <50% of the methylene blue was judged to have deposited in the olfactory cleft, imaging was stopped and that session's trial was completed.

Data set [2] can be described thus: Plasma and tissue concentrations of ketamine via olfactory delivery compared to intravenous administration in rats (LC/MS/MS). It counts as in vivo, male Sprague Dawley rats. The conditions noted are these: 5 mg/kg; for concentration at 5 min / concentration at 0.25 h / concentration at 0.5 h / concentration at 1 h / concentration at 1.5 h / concentration at 2 h / concentration at 200 min: rat, plasma; for concentration at 0.25 h: 15 min; for concentration at 0.5 h: 30 min; for concentration at 1 h: 60 min; for concentration at 1.5 h: 90 min; for concentration at 2 h: 120 min. The procedure: Drug Administration and Sample Collection: Intravenous (IV) administration was conducted by 100 μL tail vein injection. Olfactory delivery (OD) administration was conducted by a. 0.699 mm diameter cannula inserted into the right nostril with a minimal angle of 20-degrees to the target of the correct meatus.
Time course experiment and tissue concentration: 12 male Sprague Dawley rats (Age M+/−SD, Weight: 176.27-188.03 g) were administered Ketamine-HCl via IV or OD administration (resulting in two experimental groups, each with n=6). Ketamine-HCl was formulated according to the following procedures: For Ketamine-HCL 5 mg/kg OD: 24.64 mg Ketamine-HCL was added to 0.426 ml of saline, mixed well, and dissolved, with a solution concentration of 50 mg/ml. For Ketamine-HCL 5 mg/kg IV: 0.20 ml of 50 mg/ml Ketamine-HCL solution, was added to 0.60 ml of saline and mixed well to achieve a solution concentration of 12.5 mg/ml. Plasma time courses for 200 minutes were generated. Concentration of compound in brain, olfactory bulb, and plasma at t=200 minutes was quantified using LC/MS/MS.

Data set [3] is described as follows: Effect of administration routes (OD, IN, IV) on plasma, brain and olfactory bulb drug concentrations in rats (LCMS). The conditions noted are these: 15 min after administration, 5.0 mg/kg.
Description: The goal of this example was to compare nasal cannula delivery (OD) with the traditional IV and IN administration routes.
Procedure: The three routes of administration were tested on rats. A compound formulation of ketamine (5.0 mg/kg), naloxone (0.5 mg/kg), diazepam (2.0 mg/kg), and ondansetron (1.0 mg/kg) was administer. 15 minutes after the drug was administered, rats were sacrificed and samples were taken from plasma, the olfactory bulb, and the brain. To assess each route of administration's efficacy, drug concentrations in each tissue were quantified using liquid chromatography-mass spectrometry (LCMS).

In the case of `CN(C)c1ccc2nc3ccc(=[N+](C)C)cc-3sc2c1` [Methylene Blue], the “Olfactory Residence Time” value in data set [1] (LFE Method (1.5 mm cannula; velocity=4.5 m/s)) is 8 min and 5 min and 0 min and 1 min and 15 min; in data set [1] (conventional nasal spray) it was 0 min. In addition, the “participants with successful delivery of >50% of the methylene blue to the olfactory cleft” value in data set [1] (Laminar Fluid Ejection method) is reported as “Four of the five participants”. For the same compound, in data set [1] (conventional nasal spray, each of the five participants), the “delivery of at least 50% of the dye to the olfactory cleft” value is given as “failed to deliver at least 50% of the dye”.

In the case of `CNC1(c2ccccc2Cl)CCCCC1=O` (centres unmarked) [Ketamine-HCl], in data set [2] (IV), the concentration at 5 min stood at 1.71 µg/mL, the concentration at 0.25 h was found to be 0.686 µg/mL, the concentration at 0.5 h was 0.33 µg/mL and the concentration at 1 h was determined as 0.15 µg/mL. In data set [2] (IV), this compound registered a concentration at 1.5 h of 0.0658 µg/mL, a concentration at 2 h of 0.0271 µg/mL and a concentration at 200 min of 0.00253 µg/mL. In data set [2] (OD), this compound came in with a concentration at 5 min of 7.6 µg/mL, a concentration at 0.25 h of 7.25 µg/mL, a concentration at 0.5 h of 2.63 µg/mL and a concentration at 1 h of 0.383 µg/mL. In data set [2] (OD), this compound displayed a concentration at 1.5 h of 0.149 µg/mL, a concentration at 2 h of 0.063 µg/mL and a concentration at 200 min of 0.0053 µg/mL.

Turning to `CNC1(c2ccccc2Cl)CCCCC1=O` (centres unmarked) [ketamine], the “plasma concentration, OD vs IV” value in data set [2] is “higher plasma concentration of ketamine can be achieved with OD than IV”. For the same compound, the “delivery to brain tissue, targeted to olfactory cleft (OD) vs traditional intranasal” value in data set [3] is recorded as “improved delivery to brain tissue compared to traditional intranasal sprays”.
